{
  "source": "ChEMBL document CHEMBL1201862",
  "about": "“PubChem BioAssay data set” (2004)",
  "key": {"[1]": {"biological_target": "DNA dC->dU-editing enzyme APOBEC-3G (Homo sapiens, UniProt Q9HC16)", "sequence (Q9HC16 whole entry)": "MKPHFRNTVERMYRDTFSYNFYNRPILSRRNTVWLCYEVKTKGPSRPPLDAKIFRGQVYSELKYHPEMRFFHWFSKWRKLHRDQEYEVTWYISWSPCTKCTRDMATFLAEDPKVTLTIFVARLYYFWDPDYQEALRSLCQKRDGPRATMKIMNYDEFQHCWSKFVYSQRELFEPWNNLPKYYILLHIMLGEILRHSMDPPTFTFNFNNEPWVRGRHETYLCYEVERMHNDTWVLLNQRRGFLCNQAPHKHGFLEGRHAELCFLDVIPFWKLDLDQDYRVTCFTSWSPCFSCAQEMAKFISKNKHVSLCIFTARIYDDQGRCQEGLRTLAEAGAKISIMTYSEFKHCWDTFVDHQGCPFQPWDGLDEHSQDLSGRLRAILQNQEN", "assay": "Dose Response confirmation of small molecule APOBEC3G DNA Deaminase Inhibitors via a fluorescence-based single-stranded DNA deaminase assay. [Related pubchem assays (depositor defined):AID493012, AID493028]", "assay_type": "functional"}, "[2]": {"biological_target": "T1, Alkaline phosphatase, tissue-nonspecific isozyme (Homo sapiens, UniProt P05186)", "T1 sequence (P05186 whole entry)": "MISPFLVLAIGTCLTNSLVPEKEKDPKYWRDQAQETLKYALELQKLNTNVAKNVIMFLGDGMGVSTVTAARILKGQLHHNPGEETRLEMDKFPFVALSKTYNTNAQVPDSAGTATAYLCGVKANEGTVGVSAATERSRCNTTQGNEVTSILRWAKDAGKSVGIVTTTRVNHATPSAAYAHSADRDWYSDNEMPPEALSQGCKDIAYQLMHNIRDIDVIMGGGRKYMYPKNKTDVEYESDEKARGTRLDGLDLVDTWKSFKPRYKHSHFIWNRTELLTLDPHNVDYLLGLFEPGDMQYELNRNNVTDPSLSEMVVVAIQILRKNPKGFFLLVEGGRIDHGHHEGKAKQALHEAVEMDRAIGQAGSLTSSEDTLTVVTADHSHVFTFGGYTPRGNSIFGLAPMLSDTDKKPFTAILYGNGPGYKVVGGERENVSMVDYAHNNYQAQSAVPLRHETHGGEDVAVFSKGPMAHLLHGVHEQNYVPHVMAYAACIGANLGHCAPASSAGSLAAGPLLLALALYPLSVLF", "assay": "TNAP enzyme inhibition by screening hits, dose response, selectivity assay for mouse IAP inhibitor project, biochemical, human TNAP, uHTS hits (AID 488906)", "assay_type": "functional"}, "Vero": {"test_system": "Vero", "assay": "viability of Vero cells under compound – cytotoxicity control for flavivirus capping enzyme inhibitors (AID 588742)", "assay_type": "functional", "settings": "Chlorocebus sabaeus"}, "[3]": {"biological_target": "Runt-related transcription factor 1/Core-binding factor subunit beta (Homo sapiens, UniProt Q01196+Q13951)", "sequence (Q01196 whole entry, the tested form may be a part)": "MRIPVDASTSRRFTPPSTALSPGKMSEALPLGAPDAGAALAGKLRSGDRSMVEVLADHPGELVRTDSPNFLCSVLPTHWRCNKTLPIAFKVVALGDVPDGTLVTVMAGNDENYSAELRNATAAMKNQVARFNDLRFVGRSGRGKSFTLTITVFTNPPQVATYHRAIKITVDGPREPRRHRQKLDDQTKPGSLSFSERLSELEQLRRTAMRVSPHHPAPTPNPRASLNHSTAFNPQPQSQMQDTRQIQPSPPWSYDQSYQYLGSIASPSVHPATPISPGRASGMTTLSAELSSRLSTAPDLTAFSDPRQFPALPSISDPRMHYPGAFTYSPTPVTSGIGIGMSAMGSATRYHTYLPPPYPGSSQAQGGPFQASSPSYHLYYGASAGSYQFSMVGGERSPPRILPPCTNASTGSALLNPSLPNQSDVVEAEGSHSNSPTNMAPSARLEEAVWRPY", "sequence (Q13951 whole entry, the tested form may be a part)": "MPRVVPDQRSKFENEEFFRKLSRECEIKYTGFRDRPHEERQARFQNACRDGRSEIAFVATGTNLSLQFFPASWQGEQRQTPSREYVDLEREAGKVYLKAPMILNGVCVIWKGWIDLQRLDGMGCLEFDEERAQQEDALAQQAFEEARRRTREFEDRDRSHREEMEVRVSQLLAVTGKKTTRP", "assay": "disruptors of Runt domain/CBFb-SMMHC interaction – biochemical, FRET, Cerulean-Runt, Venus-CBFb-SMMHC, uHTS, […] (AID 1434)", "assay_type": "protein assay"}, "[4]": {"biological_target": "Glyceraldehyde-3-phosphate dehydrogenase (Homo sapiens, UniProt P04406)", "sequence (P04406 whole entry)": "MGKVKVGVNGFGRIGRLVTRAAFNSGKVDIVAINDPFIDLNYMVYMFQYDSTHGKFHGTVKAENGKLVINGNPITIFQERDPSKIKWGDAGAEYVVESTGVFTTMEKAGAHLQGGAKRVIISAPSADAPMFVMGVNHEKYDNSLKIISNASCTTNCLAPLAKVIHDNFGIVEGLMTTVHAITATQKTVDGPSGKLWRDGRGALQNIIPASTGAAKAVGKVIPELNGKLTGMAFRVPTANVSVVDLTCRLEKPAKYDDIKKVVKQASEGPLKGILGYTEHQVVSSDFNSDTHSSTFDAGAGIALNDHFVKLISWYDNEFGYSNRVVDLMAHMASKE"}, "[5]": {"biological_target": "Voltage-gated N-type calcium channel alpha-1B subunit/Amyloid beta A4 precursor protein-binding family A member 1 (Homo sapiens, UniProt Q00975+Q02410)", "assay_type": "protein assay"}, "[6]": {"biological_target": "T2, Ubiquitin-conjugating enzyme E2 N (Homo sapiens, UniProt P61088)", "T2 sequence (P61088 whole entry)": "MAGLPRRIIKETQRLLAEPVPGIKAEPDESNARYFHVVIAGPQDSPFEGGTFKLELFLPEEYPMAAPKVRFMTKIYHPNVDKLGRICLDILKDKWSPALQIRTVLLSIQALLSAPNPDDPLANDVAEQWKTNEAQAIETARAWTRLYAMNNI", "assay_type": "functional"}, "[7]": {"biological_target": "Glutathione-S-transferase (Schistosoma japonicum, UniProt Q26513)", "sequence (Q26513 whole entry)": "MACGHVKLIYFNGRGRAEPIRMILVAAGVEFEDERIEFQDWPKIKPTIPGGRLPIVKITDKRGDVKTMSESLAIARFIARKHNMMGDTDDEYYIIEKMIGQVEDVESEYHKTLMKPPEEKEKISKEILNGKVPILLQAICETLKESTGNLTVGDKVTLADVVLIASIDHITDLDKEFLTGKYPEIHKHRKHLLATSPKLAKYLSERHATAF", "assay": "GST-antibody interaction or FRET quenching – biochemical, TR-FRET, artefact control for Vif-APOBEC3G degradation inhibitor project, dose response (AID 1117362)", "assay_type": "functional"}, "[8]": {"biological_target": "Tyrosine-protein kinase Lck (Homo sapiens, UniProt P06239)", "sequence (P06239 whole entry)": "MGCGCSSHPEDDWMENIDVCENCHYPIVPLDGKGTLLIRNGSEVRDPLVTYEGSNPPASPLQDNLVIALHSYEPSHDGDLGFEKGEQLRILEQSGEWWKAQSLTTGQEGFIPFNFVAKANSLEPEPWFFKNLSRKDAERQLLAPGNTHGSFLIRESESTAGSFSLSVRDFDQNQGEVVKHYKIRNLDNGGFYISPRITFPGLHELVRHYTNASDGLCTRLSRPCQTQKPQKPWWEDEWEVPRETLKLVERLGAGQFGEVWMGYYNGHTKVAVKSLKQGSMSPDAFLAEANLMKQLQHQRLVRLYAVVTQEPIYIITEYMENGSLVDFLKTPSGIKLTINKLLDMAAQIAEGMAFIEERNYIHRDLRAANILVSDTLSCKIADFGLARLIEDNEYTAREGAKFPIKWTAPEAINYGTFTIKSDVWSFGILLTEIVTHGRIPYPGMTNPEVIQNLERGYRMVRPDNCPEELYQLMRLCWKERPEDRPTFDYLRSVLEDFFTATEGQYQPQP", "assay_type": "functional"}, "[9]": {"biological_target": "C-C chemokine receptor type 6 (Homo sapiens, UniProt P51684)", "assay": "antagonism of CCR6 beta-arrestin recruitment – cell-based, luminescent beta-arrestin readout, dose response (AID 504728)", "assay_type": "functional"}, "[10]": {"assay": "HEK-293T viability loss after treatment – luminescence, T-cell screen hits, cytotoxicity control for TCR NF-kB inhibitor project, dose response (AID 489026);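 also: cells exposed to compound about 14 hours before the viability readout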", "assay_type": "functional, cell-based"}, "Nonstructural protein 1": {"biological_target": "Nonstructural protein 1 (Influenza A virus, UniProt Q194T2)", "sequence (Q194T2 whole entry)": "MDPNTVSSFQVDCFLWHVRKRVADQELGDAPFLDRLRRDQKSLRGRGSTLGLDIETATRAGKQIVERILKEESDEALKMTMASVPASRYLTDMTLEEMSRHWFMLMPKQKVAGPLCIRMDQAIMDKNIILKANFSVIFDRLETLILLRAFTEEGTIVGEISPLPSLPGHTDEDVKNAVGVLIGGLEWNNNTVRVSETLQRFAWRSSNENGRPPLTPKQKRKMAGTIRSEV", "assay_type": "functional, Influenza A virus (A/California/07/2009(H1N1))"}, "[11]": {"biological_target": "Protein kinase C delta type (Homo sapiens, UniProt Q05655)", "assay_type": "functional"}, "[12]": {"biological_target": "Serine/threonine-protein kinase PLK4 (Homo sapiens, UniProt O00444)", "assay_type": "functional"}, "[13]": {"biological_target": "Calcium/calmodulin-dependent protein kinase type II subunit gamma (Homo sapiens, UniProt Q13555)", "sequence (Q13555 whole entry)": "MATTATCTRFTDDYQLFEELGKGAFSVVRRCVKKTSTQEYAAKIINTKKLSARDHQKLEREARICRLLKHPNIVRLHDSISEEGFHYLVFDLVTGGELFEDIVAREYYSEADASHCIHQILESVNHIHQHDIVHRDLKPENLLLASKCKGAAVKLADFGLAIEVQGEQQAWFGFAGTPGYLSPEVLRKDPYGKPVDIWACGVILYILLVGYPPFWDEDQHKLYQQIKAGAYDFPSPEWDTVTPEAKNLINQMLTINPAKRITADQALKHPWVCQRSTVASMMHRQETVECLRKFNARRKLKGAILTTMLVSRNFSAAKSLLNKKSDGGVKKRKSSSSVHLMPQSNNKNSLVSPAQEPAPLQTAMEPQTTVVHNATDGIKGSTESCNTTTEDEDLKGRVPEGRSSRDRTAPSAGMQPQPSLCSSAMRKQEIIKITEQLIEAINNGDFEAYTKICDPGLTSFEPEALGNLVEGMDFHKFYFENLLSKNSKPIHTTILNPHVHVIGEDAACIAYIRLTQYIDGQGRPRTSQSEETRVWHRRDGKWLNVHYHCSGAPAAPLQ", "assay_type": "functional"}, "[14]": {"biological_target": "Testis-specific serine/threonine-protein kinase 2 (Homo sapiens, UniProt Q96PF2)", "sequence (Q96PF2 whole entry)": "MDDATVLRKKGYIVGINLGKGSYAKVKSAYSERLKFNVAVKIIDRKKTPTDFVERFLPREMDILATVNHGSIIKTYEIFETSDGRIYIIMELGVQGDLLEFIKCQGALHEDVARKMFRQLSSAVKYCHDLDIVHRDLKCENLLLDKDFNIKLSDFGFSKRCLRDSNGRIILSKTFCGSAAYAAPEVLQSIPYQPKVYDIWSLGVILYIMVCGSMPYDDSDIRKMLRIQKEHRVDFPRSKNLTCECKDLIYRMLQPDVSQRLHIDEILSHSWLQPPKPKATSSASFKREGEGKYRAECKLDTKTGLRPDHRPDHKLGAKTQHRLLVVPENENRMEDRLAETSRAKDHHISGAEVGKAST", "assay_type": "functional"}, "SRSF protein kinase 1": {"biological_target": "SRSF protein kinase 1 (Homo sapiens, UniProt Q96SB4)", "assay_type": "functional"}, "Insulin receptor": {"biological_target": "Insulin receptor (Homo sapiens, UniProt P06213)", "assay_type": "functional"}, "[15]": {"biological_target": "Mitogen-activated protein kinase kinase kinase kinase 5 (Homo sapiens, UniProt Q9Y4K4)", "sequence (Q9Y4K4 whole entry)": "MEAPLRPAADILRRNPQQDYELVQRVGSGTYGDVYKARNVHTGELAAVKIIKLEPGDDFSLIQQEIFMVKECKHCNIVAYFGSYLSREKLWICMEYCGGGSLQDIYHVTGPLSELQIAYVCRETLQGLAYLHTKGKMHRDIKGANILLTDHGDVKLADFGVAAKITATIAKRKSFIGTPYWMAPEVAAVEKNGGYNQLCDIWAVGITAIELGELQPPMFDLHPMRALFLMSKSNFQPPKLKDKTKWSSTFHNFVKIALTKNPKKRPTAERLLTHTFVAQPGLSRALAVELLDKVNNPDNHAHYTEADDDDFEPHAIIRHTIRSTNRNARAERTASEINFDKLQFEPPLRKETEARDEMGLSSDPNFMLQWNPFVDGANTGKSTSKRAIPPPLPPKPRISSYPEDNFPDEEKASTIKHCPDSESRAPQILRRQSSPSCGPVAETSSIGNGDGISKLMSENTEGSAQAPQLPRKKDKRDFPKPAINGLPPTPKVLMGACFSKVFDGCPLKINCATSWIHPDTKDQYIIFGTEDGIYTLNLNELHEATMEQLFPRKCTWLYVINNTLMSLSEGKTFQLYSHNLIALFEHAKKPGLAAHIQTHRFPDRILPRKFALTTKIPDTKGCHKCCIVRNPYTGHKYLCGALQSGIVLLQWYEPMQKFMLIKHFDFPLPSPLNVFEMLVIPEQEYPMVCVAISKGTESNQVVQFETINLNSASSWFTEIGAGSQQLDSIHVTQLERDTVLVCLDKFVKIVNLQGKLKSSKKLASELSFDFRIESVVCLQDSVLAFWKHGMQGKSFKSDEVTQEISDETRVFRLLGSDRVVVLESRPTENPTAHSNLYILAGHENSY", "assay_type": "functional"}, "[16]": {"biological_target": "Tyrosine-protein kinase Fer (Homo sapiens, UniProt P16591)", "sequence (P16591 whole entry)": "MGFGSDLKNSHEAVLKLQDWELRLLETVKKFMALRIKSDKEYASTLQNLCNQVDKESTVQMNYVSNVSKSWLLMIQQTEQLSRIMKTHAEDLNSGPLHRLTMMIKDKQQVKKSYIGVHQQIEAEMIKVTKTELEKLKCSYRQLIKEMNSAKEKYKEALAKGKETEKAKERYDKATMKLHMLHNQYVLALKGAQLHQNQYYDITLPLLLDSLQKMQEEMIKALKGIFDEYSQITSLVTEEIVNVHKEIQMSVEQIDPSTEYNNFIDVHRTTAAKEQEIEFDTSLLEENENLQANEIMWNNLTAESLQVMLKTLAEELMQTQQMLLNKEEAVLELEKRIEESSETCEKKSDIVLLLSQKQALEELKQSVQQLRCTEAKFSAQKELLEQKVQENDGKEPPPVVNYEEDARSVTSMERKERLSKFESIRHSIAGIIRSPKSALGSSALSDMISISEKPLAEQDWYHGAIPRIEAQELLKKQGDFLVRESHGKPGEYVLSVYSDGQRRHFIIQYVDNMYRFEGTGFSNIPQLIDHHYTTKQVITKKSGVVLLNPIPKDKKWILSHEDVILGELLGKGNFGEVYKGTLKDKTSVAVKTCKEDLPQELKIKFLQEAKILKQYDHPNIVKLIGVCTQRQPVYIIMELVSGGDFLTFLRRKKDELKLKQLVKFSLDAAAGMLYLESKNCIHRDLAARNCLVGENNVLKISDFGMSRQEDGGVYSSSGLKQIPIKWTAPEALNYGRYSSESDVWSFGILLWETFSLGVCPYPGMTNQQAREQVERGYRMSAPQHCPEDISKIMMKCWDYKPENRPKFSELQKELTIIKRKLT", "assay_type": "functional"}, "[17]": {"biological_target": "Mitogen-activated protein kinase kinase kinase 10 (Homo sapiens, UniProt Q02779)", "assay": "Navigating the Kinome. Panel member name: MAP3K10", "assay_type": "functional"}},
  "note": "Active and inactive are the calls of the source.",
  "data": [
    {"smiles": "O=C1/C(=C\\c2cccc(O)c2O)SC(=S)N1Cc1ccccc1", "values": [
      {"measurement": "IC50", "setting": "[1]", "value": "47.2 µM (active)"},
      {"measurement": "IC50", "setting": "[2]", "value": "> 100 µM (inactive)"},
      {"measurement": "CC50", "setting": "Vero", "value": "16.1 µM (active)"}
    ]},
    {"smiles": "COc1cccc2c1NC(C(=O)O)C1CC=CC21", "note": "(stereo unspecified)", "values": [
      {"measurement": "IC50", "setting": "[3]", "value": "> 100 µM (inactive)"},
      {"measurement": "IC50", "setting": "[4]", "value": "88.9 µM (active)"},
      {"measurement": "IC50", "setting": "[5]", "value": "4.46 µM (active)"},
      {"measurement": "IC50", "setting": "[6]", "value": "19.1 µM (active)"},
      {"measurement": "IC50", "setting": "[7]", "value": "> 100 µM (active)"}
    ]},
    {"smiles": "COc1c(-c2nc3ccccc3[nH]2)c(O)cc2oc(C)cc(=O)c12", "values": [
      {"measurement": "Ki", "setting": "[8]", "value": "> 6.31 µM (inactive)"}
    ]},
    {"smiles": "CCc1ccc(S(=O)(=O)/N=C2\\C=C(Nc3ccc(O)cc3)C(=O)c3ccccc32)cc1", "values": [
      {"measurement": "IC50", "setting": "[9]", "value": "> 66.6 µM (inactive)"},
      {"measurement": "IC50", "setting": "[10]", "value": "3.96 µM (active)"},
      {"measurement": "IC50", "setting": "Nonstructural protein 1", "value": "5.88 µM (active)"}
    ]},
    {"smiles": "Cc1ccc(F)c(NC(=O)Nc2ccc(-c3cccc4[nH]nc(N)c34)cc2)c1", "note": "[LINIFANIB]", "values": [
      {"measurement": "Ki", "setting": "[11]", "value": "> 7.94 µM (inactive)"},
      {"measurement": "Ki", "setting": "[12]", "value": "0.631 µM (active)"},
      {"measurement": "Ki", "setting": "[13]", "value": "3.98 µM (active)"},
      {"measurement": "Ki", "setting": "[14]", "value": "> 1.58 µM (inactive)"},
      {"measurement": "Ki", "setting": "SRSF protein kinase 1", "value": "7.94 µM (active)"},
      {"measurement": "Ki", "setting": "Insulin receptor", "value": "0.794 µM (active)"},
      {"measurement": "Ki", "setting": "[15]", "value": "0.316 µM (active)"},
      {"measurement": "Ki", "setting": "[16]", "value": "0.501 µM (active)"},
      {"measurement": "Ki", "setting": "[17]", "value": "> 3.16 µM (inactive)"}
    ]}
  ]
}
